Results taken from US20040077720A1, “Inhibition of antibody production employing perfluorooctanoic acid or derivatives thereof” (priority 2002, published 2004).
Entries after “also recorded” stand apart in the source; their conditions may differ.

Key:
MRL/MpJ-Tnfrsf6^1pr-Mice [1] = test: Treatment of MRL/MpJ-Tnfrsf6 lpr mice (spontaneous SLE-like autoimmune syndrome); clinical observation, urine, autopsy; format: in vivo
Excerpt: As the experimental animal model for studies of inhibition of disease development and the underlying mechanism(s), Applicants have employed MRL-Tnfrs6/1 pr mice, which spontaneously develop high levels of a wide range of antibodies and an SLE-like syndrome, including severe lymphoadrenopathy. The MRL-mouse strain is known to develop a severe autoimmune disease syndrome. In fact, it is known to develop the most severe disease state. Highs levels of circulating autoantibodies, immunocomplexes mediated glomerulonephritis, arthritis and vasculitis are observed. The mice also develop a heavy proliferation of lymph nodes.
(§1) The presence of circulating immunocomplexes is analyzed indirectly by continuous monitoring of the levels of protein, hemoglobin and erythrocytes in the urine of these animals, the quantities of which are directly related to the severity of the immunocomplex-mediated glomerulonephritis which develops. […] The effectiveness of a low dose of the substance and 100% reproducibility argue for a direct inhibition of the mechanism(s) underlying development of the disease.
The symptoms which these mice develop include deterioration of joints and consequent motor difficulties, kidney damage with resulting uremia (retention of fluid) and extreme lymphoadenopathy. This lymphoadenopathy arises from defects in the FAS antigen gene resulting from the lymphoproliferation (1 pr) mutation in MRL-mice. In the final stages of their disease these animals also develop dermal vasculitis. 100% of these mice develop these symptoms.
The degree of renal damage can be monitored on the basis of the level of protein, erythrocytes, hemoglobin and hyalin cylinders in the urine. Lymphocyte proliferation can be assessed from the growth of lymph nodes in the shoulders and groin, as well as along the aorta. Blood and tissue samples are collected for analysis and histopathological examination.
Animal Model: MRL/MpJ-Tnfrsf6^1pr-Mice
This strain develops spontaneous systemic lupus erythematosus-like autoimmune syndrome at or about 8 weeks of age. The syndrome is characterized by massive lymphadenopathy, immune complex glomerulonephritis, arthritis, high level of circulating antibodies, and vasculitis.
Compounds A and B were tested. Compound A was a reference compound and compound B was PFOA. Treatment was initiated at the age of 5 and 8 weeks, respectively. All animals received the respective compounds on a daily basis. A control group of mice without treatment was run in parallel. The following parameters were screened.
2. Investigation of urine sediment.
3. Monitoring of proteinuria.
Parameters followed during the study: 1) Clinical observation; 2) Urine: light microscopy, proteinuria. The following organs were sampled: thymus, lymph nodes, kidney, liver, and spleen. The organs were investigated by histopathology and immunohistopathology.

horse erythrocytes = test: Immunization with horse erythrocytes after treatment; antibody response; format: in vivo; settings: mice treated, then immunized with horse erythrocytes
Excerpt: (§2) By inhibiting antibody production, this substance also prevents the formation of immunocomplexes. These treated animals appear completely normal, without joint deterioration, lymphocyte proliferation, dermal vasculitis or immunocomplex-mediated glomerulonephritis.

thymus and spleen = test: Laboratory studies: thymus and spleen; parameters: species or system rodent; settings: in vivo
Excerpt: PFOA belongs to a group of chemicals that induce peroxisome proliferation in the liver in rodent. […] These initial observations led to the inventors' discovery that PFOA could interfere with the immune system, and that PFOA could express immunosuppressive properties.

MRL/MpJ-Tnfrsf6^1pr-Mice [2] = test: Withdrawal study in treated MRL mice; format: in vivo
Description: as §1, §2
In a separate study compound B was withdrawn from mice treated during 23-26 weeks. The mice were followed for up to 39-42 weeks.

[3] = daily treatment started at age 5 or 8 weeks
[4] = mouse, in vivo, listed as perfluorooctanoic acid

O=C(O)C(F)(F)C(F)(F)C(F)(F)C(F)(F)C(F)(F)C(F)(F)C(F)(F)F [Compound B, Perfluorooctanoic acid]
anasarca (MRL/MpJ-Tnfrsf6^1pr-Mice [1]; at autopsy): no anasarca was detected
survival rate (MRL/MpJ-Tnfrsf6^1pr-Mice [1]; compared to control group and compound A treated mice): clear-cut increase of survival rate
body weight (MRL/MpJ-Tnfrsf6^1pr-Mice [1]; [3]): No body weight gain
enlarged lymph nodes (MRL/MpJ-Tnfrsf6^1pr-Mice [1]; [3]): No
clinical observation: activity / movement (MRL/MpJ-Tnfrsf6^1pr-Mice [1]; mouse, in vivo): very active
fur (MRL/MpJ-Tnfrsf6^1pr-Mice [1]; mouse, in vivo): normal fur
lymphadenopathy (MRL/MpJ-Tnfrsf6^1pr-Mice [1]; mouse, in vivo): No lymphadenothapy was observed
ulcers (MRL/MpJ-Tnfrsf6^1pr-Mice [1]; mouse, in vivo): No ulcers were observed
signs / symptoms of disease during treatment (MRL/MpJ-Tnfrsf6^1pr-Mice [1]; mouse, in vivo, listed as compound B): did not develop any signs of disease
signs / symptoms of disease during treatment (MRL/MpJ-Tnfrsf6^1pr-Mice [1]; [4]): none of these disease symptoms are observed
proteinuria (MRL/MpJ-Tnfrsf6^1pr-Mice [1]; urine, daily treatment started at age 5 or 8 weeks): No
antibody response to foreign antigens (horse erythrocytes): no antibody response
thymus and spleen (thymus and spleen): a reduction of thymus and spleen was observed
disease symptoms when treatment is terminated / substance withdrawn (MRL/MpJ-Tnfrsf6^1pr-Mice [2]; [4]): the animals develop disease symptoms; also recorded: the mice begin to develop typical disease symptoms
time after withdrawal at which proteinuria was observed (MRL/MpJ-Tnfrsf6^1pr-Mice [2]; treated during 23-26 weeks): 5 weeks
weight after withdrawal (MRL/MpJ-Tnfrsf6^1pr-Mice [2]; treated during 23-26 weeks, followed up to 39-42 weeks): an increase in weight was observed
clinical symptoms after withdrawal (MRL/MpJ-Tnfrsf6^1pr-Mice [2]; treated during 23-26 weeks, followed up to the 42 week point): no sign of symptoms were observed
